# Data taken from patent US7482453B2, “Process for the manufacture of (+)-(S)-clopidogrel bisulfate form-1” (Wockhardt Ltd., priority 2003, dated 2009).
# Counter-ions that a name gives are not always drawn.
# Legend:
# platelet aggregation = settings: cited from earlier work; for Platelet aggregation inhibiting activity of the enantiomers: as described in EP 281459
# [1] = versus Aspirin; cited from earlier work
# [2] = Form-I obtained by the ethyl acetate process
compound,measurement,setting,value
"COC(=O)C(c1ccccc1Cl)N1CCc2sccc2C1 (single isomer, unassigned) [levo-rotatory isomer]",Platelet aggregation inhibiting activity of the enantiomers,platelet aggregation,less active
"COC(=O)[C@H](c1ccccc1Cl)N1CCc2sccc2C1 [Clopidogrel hydrogen sulfate, bisulfate of methyl-(+)-(S)-α-(2-chlorophenyl)-4,5,6,7-tetrahydrothieno[3,2,-c]pyridine-5-acetate]",Platelet aggregation inhibiting activity of the enantiomers,platelet aggregation,excellent platelet aggregation inhibiting activity
COC(=O)[C@H](c1ccccc1Cl)N1CCc2sccc2C1 [Clopidogrel],Effectiveness in blocking platelet aggregation compared with Aspirin,"platelet aggregation; recent studies, versus Aspirin",more effective in blocking platelet aggregation than Asprin
same,Gastrointestinal bleeding compared with Aspirin,[1],much less gastrointestinal bleeding than Asprin
"COC(=O)[C@H](c1ccccc1Cl)N1CCc2sccc2C1 [Form-I, Methyl-(+)-(S)-α-(2-Chlorophenyl)-6,7-dihydrothieno[3,2-c]pyridine-5(4H)-acetate bisulfate Form-I]",Stability of the crystal form / conversion to other forms,[2],stable and does not convert to any other forms
